Here are results for 17 compounds from BindingDB's records for doi:10.7270/Q2Q52N1X (Vanderbilt Screening Center for GPCRs, Ion Channels and …, 2009).

Usually EC50 stands for the concentration needed to bring the measured effect to its halfway point.

The target in this assay is T1, Solute carrier family 12 member 5 (Homo sapiens, UniProt Q9H2X9).
T1 sequence (Q9H2X9 whole entry): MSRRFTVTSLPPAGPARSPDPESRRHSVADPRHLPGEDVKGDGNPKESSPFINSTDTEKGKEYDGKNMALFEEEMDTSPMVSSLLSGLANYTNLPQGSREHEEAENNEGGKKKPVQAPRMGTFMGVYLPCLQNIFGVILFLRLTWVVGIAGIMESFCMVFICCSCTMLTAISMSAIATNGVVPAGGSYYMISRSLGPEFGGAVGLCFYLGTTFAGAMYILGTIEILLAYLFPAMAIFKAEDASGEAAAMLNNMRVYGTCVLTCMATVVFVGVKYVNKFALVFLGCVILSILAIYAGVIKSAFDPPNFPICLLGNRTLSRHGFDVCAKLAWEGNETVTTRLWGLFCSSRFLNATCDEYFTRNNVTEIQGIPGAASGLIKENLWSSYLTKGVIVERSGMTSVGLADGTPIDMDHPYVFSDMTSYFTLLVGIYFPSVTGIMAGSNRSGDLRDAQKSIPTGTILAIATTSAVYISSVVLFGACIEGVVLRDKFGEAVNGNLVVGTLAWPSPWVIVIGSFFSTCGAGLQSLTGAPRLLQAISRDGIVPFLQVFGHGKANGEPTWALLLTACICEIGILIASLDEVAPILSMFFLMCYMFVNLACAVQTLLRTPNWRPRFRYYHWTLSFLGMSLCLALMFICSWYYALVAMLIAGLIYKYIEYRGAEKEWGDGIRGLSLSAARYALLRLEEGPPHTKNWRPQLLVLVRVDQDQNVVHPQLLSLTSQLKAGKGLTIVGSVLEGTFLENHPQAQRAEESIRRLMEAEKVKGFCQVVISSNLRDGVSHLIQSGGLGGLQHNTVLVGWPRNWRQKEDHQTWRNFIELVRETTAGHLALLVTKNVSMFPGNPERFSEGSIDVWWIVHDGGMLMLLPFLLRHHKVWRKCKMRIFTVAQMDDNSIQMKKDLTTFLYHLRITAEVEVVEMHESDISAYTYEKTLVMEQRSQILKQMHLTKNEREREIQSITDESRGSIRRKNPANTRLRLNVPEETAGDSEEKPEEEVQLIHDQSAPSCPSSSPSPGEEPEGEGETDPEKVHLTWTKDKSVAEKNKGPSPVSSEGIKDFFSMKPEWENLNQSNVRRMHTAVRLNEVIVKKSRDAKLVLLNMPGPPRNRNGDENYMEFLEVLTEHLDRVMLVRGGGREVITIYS
Kind of assay: KCC2 modulator potency by thallium flux, dose response, cell-based, HEK293 KCC2, FluoZin-2 fluorescence (AID 1736).

Regarding `CC(C)(CN=C(S)NCCc1ccccc1)CN=C(S)NCCc1ccccc1` [1-[2,2-dimethyl-3-(2-phenylethylcarbamothioylamino)propyl]-3-(2-phenylethyl)thiourea], a half-maximal effect (EC50) was put at 0.929 µM. That is a sub-micromolar value. For the setting “inactive by the depositor's call”, `CSc1ccc(NC(=O)NCCN2CCc3ccccc3C2)cc1` [1-[2-(3,4-dihydro-1H-isoquinolin-2-yl)ethyl]-3-(4-methylsulfanylphenyl)urea] had an EC50 of 21.5 µM. That is a double-digit micromolar value.

In the case of `CCOC(=O)c1cc2c(ccn2C)n1CC(=O)N1CCC(Cc2ccccc2)CC1` [1-[2-(4-Benzyl-piperidin-1-yl)-2-oxo-ethyl]-4-methyl-1,4-dihydro-pyrrolo[3,2-b]pyrrole-2-carboxylic acid ethyl ester], the EC50 turned out to be 7.58 µM. Compound `Cc1ccc2oc(-c3ccc(C)c(NC(=S)NC(=O)c4cccs4)c3)nc2c1` [1-[2-Methyl-5-(5-methyl-benzooxazol-2-yl)-phenyl]-3-(thiophene-2-carbonyl)-thiourea] gave an EC50 of 0.2 µM. For the compound `CCC(c1nnc(SCc2nc3ccccc3s2)n1Cc1ccccc1)N(C)C` (configuration not stated) [1-[5-(1,3-benzothiazol-2-ylmethylsulfanyl)-4-(phenylmethyl)-1,2,4-triazol-3-yl]-N,N-dimethyl-propan-1-amine], the midpoint of the response, the EC50, lay at 6.62 µM.

`CN(Cc1ccccc1)c1nc2nonc2nc1N1CCCC(CN2CCCC2=O)C1` (configuration not stated) [1-[(1-{6-[benzyl(methyl)amino][1,2,5]oxadiazolo[3,4-b]pyrazin-5-yl}piperidin-3-yl)methyl]pyrrolidin-2-one]: the EC50 was 9050 µM. In the case of `S=C(NCCc1ccccc1)NN=Cc1cccc(Cl)c1Cl` [1-[(2,3-dichlorobenzylidene)amino]-3-phenethyl-thiourea], the EC50 amounted to 7.78 µM. This EC50 lies about 1200-fold lower than the previous one. As to `Fc1cccc(F)c1C=NNC(=S)Nc1cccnc1` [1-[(2,6-difluorobenzylidene)amino]-3-(3-pyridyl)thiourea], the midpoint of the response, the EC50, lay at 5.9 µM. For the compound `NC(=S)NN=C1C(=O)N(Cc2ccc(F)cc2)c2ccccc21` [1-[(Z)-[1-[(4-fluorophenyl)methyl]-2-oxidanylidene-indol-3-ylidene]amino]thiourea], the EC50 amounted to 38 µM. This EC50 is about 6.4-fold higher than that of the compound before. Still for that read-out and setting: the same measure for `NC(=S)NN=C1C(=O)N(Cc2ccccc2)c2ccccc21` [1-[(Z)-[2-oxidanylidene-1-(phenylmethyl)indol-3-ylidene]amino]thiourea]: 0.618 µM; for `O=C(C1CC1)N1CCc2cc(S(=O)(=O)NC3CCN(Cc4ccccc4)CC3)ccc21` [1-[cyclopropyl(oxo)methyl]-N-[1-(phenylmethyl)-4-piperidinyl]-2,3-dihydroindole-5-sulfonamide]: 22.7 µM; for `O=C(NN=Cc1ccc(OCc2ccccc2)cc1)c1cc[n+](Cc2ccccc2)cc1` [1-benzyl-4-({2-[4-(benzyloxy)benzylidene]hydrazino}carbonyl)pyridinium chloride]: 563 µM. `O=C(CSc1ccc(-c2ccccc2)nn1)c1ccccc1` [1-phenyl-2-(6-phenylpyridazin-3-yl)sulfanyl-ethanone] showed an EC50 of 0.862 µM. This EC50 is about 650-fold lower than that of the compound before. Compound `CC1CCN(C(=O)c2ccc(SCc3ccccc3F)c([N+](=O)[O-])c2)CC1` [1-{4-[(2-fluorobenzyl)thio]-3-nitrobenzoyl}-4-methylpiperidine] came in with an EC50 of 1.94 µM. Compound `O=C(c1ccc(S(=O)(=O)c2cccc(Cl)c2)c([N+](=O)[O-])c1)N1CCN(c2ccccn2)CC1` [1-{4-[(3-chlorophenyl)sulfonyl]-3-nitrobenzoyl}-4-pyridin-2-ylpiperazine] gave an EC50 of 3.61 µM. This EC50 lies about 1.9-fold higher than the previous one. Still for that read-out and setting: the value for `O=C(NN=Cc1ccc(Cl)s1)C1COc2ccccc2O1` (configuration not stated) [2,3-Dihydro-benzo[1,4]dioxine-2-carboxylic acid [1-(5-chloro-thiophen-2-yl)-meth-(Z)-ylidene]-hydrazide] was 32.7 µM; that for `COc1cc(C=NNC(=O)CN(Cc2ccccc2)S(=O)(=O)c2ccc3c(c2)OCCO3)ccc1O` [2,3-Dihydro-benzo[1,4]dioxine-6-sulfonic acid benzyl-(4-hydroxy-3-methoxy-benzylidene-hydrazinocarbonylmethyl)-amide] was 3.15 µM.
